What was measured:
[1] = target: T1, MAP3K7/MAP3K7IP1 (TAK1-TAB1) (Homo sapiens, UniProt O43318); assay: SelectScreen LanthaScreen Binding; details: 1000 nM
T1 sequence (O43318 with tags, fused parts or gaps limits assumed): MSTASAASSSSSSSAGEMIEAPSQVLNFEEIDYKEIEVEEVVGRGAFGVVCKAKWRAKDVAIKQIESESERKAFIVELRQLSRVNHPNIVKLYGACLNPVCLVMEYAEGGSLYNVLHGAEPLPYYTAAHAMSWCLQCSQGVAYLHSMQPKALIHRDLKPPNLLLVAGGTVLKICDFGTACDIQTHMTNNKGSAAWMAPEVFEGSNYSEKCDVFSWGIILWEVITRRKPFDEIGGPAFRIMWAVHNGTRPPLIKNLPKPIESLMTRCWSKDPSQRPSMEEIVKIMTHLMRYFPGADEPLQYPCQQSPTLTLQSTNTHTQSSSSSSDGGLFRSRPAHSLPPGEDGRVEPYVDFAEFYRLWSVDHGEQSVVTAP
Experimental: (§1) 133 protein kinases and 7 lipid kinases were counterscreened, with 1938 used at 1 μM, using the Adapta, Lantha and Z-LYTE assays (SelectScreen Kinase Profiling Service; Thermofisher – experimental details of these assays can be found here: https://www.thermofisher.com/uk/en/home/industrial/pharma-biopharma/drug-discovery-development/target-and-lead-identification-and-validation/kinasebiology/kinase-activity-assays.html. The tree represention in KinMap[59] generated courtesy of Cell Signaling Technology, Inc. (www.cellsignal.com). mTORC1 (mTOR/RAPTOR/LST8) protein complex and ATM kinase and substrates were produced as previously described[57],[60]. Screening of 1938 was conducted using SuperSep Phos-Tag 50 μmol/l 100 x 100 x 6.6 mm 17-well (192-18001/199-18011) gels. For ATM assays, 100 nM ATM was incubated for 30 min at 30°C with 5 μM GST-p53 and 1 mM ATP, in the absence or presence of 200 μM 1938 in ATM Kinase Buffer (50 mM HEPES pH 7.5, 100 mM NaCl, 10% glycerol, 2 mM […], 5 mM MgCl2). As a positive control for ATM activation, the same reaction was carried out with 100 nM ATM/5 μM GST-p53/1 mM ATP in the presence of 100 nM Mre11-Rad50-Nbs1 (MRN) complex, a known activator of ATM[61]. For mTORC1 assays, 50 nM mTORC1 complex (mTOR/LST8/RAPTOR) was incubated for 3 h at 30°C with 15 μM 4E-BP1, 10 mM MgCl2 and 250 μM ATP, in the absence or presence of 200 μM 1938. As a ‘positive’ control, a higher concentration (150 nM) of mTORC1 complex (mTOR/LST8/RAPTOR) was incubated for 3 h at 30°C with 15 μM 4E-BP1, 10 mM MgCl2 and 250 μM ATP. Kinase reactions were quenched by addition of SDS-PAGE Loading Buffer (as per manufacturer’s instructions) and freezing at -20°C before being run on the Phos-tag gels at 150 V for 90 min. Gels were then stained using InstantBlue™ Coomassie, and quantified using BioRad Image Lab Software. Kinase assays were carried out in triplicate.

DDR2 = target: T2, DDR2 (Homo sapiens, UniProt Q16832); assay: SelectScreen LanthaScreen Binding; details: 1000 nM
T2 sequence (Q16832 22-855): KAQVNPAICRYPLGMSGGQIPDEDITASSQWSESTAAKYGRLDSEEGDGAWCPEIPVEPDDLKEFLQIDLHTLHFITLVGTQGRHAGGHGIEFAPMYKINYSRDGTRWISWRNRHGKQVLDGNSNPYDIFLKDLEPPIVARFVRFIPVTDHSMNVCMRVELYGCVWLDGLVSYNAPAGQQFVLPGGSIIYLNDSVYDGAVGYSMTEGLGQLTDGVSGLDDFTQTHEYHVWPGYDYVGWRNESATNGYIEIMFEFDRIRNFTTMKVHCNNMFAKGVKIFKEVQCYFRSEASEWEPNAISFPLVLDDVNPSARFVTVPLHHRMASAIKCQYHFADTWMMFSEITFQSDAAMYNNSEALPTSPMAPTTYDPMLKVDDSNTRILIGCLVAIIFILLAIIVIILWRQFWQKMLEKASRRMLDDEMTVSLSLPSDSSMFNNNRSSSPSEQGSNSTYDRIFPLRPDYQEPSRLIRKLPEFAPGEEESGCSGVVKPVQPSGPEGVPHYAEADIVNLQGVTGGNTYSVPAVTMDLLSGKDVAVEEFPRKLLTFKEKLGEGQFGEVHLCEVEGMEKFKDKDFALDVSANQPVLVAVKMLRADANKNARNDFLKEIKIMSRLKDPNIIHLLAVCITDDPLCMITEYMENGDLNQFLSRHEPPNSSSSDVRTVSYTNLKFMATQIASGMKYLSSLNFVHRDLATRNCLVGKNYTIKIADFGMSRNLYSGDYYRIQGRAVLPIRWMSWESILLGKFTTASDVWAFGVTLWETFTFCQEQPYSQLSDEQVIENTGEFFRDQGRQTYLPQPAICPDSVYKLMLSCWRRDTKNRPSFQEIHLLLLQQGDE
Experimental: as §1

## CCN1CCN(c2ccc(Nc3cc(Nc4cccc5c4N(C(C)=O)CC5)ccn3)cc2)CC1 [Compound 1938]
[1]
  % Displacement Point 1: 1%
  % Displacement Point 2: -0.557%
  % Displacement mean: 0.201%
DDR2
  % Displacement Point 1: -6.46%
  % Displacement Point 2: 0.345%
  % Displacement mean: -3%

— PMC7614683, “A small molecule PI3Kα activator for cardioprotection and neuroregeneration” (Nature, 2023)
